Entries after “also recorded” stand apart in the source; their conditions may differ. Read-outs that look alike come from different tables or passages of the source.
Experiments:
mammalian cells = details: cited from earlier work
[1] = molecular target: T1, Lifeact-mCherry binding to F-actin (Oryctolagus cuniculus, UniProt P68135); assay: F-actin and Lifeact-mCherry co-sedimentation assay; parameters: species or system New Zealand white rabbit (Oryctolagus cuniculus); details: 10 μM
T1 construct: Actin was purified from acetone powder derived from the psoas muscle; made in house; host or cells: actin from rabbit psoas muscle; Lifeact-mCherry from E. coli, pE-SUMOpro
Method: Actin was purified from acetone powder derived from the psoas muscle of New Zealand white rabbit (Oryctolagus cuniculus). Filamentous (F)-actin was stored for up to 3 days on ice before use in binding assays. Within an hour of the binding assay, the F-actin was clarified at 100,000×g at 4° C. for 10 min prior to setting up binding assays. The L253P β-III-spectrin ABD was expressed in E. coli BL21(DE3) (Novagen). The ABD was purified and the His-SUMO tag proteolytically removed, as previously described, except size-exclusion chromatography was not performed due to the high purity of the ABD protein. Lifeact-mCherry protein was similarly prepared. A Bradford assay was performed to determine clarified F-actin and ABD protein concentrations.
F-actin and ABD binding assays were performed as previously described. In brief, binding assays used 1 μM ABD protein, 1 μM F-actin and 1-50 μM compound (as indicated) or DMSO control for a total reaction volume of 60 μL in F-buffer containing 10 mM Tris, pH 7.5, 150 mM NaCl, 0.5 mM ATP, 2 mM MgCl2, and 1 mM DTT. Following 30 min incubation at room temperature (21° C.). F-actin was pelleted using centrifugation at 100,000×g at 25° C. for 30 min. Unbound ABD in the supernatant was measured following SDS-PAGE and Coomassie blue staining in accord. In addition, control co-sedimentations assays that lacked actin were performed to test if compounds cause ABD aggregation. F-actin and Lifeact-mCherry binding assays were undertaken with 2 μM Lifeact-mCherry, 30 μM F-actin and 1-50 μM compound (as indicated) or DMSO control for a total reaction volume of 80 μL in F-buffer. For a no-actin binding control, an assay sample with no F-actin was also set up. Binding reactions were allowed to reach equilibrium at room temperature (21° C.) for 30 min and then F-actin was pelleted by centrifugation at 100,000×g at 25° C. for 30 min. The amount of unbound Lifeact-mCherry was sampled by loading 7 μL of spin supernatant on a low volume black bottom 384-well plate (Greiner). Amount of mCherry was determined by acquiring fluorescence spectrum peak intensity at ˜600 nm using a spectral unmixing plate reader (Fluorescence Innovations, Inc) equipped with a 532 nm laser (Laserglow Technologies, Ontario, Canada) for excitation, 532 nm longpass filter for emission, and PMT for emission detection. The fraction of Lifeact-mCherry bound to F-actin was determined by subtracting from one the fraction of supernatant fluorescence intensity relative to the no-actin control sample, using the following equation:
[formula] • Where Fcontrol/DMSO is the peak mCherry fluorescence of assay samples containing compound or DMSO control, and Fno-actin is the peak mCherry fluorescence of assay samples that contained no F-actin. 2.9 Trypan Blue Cell Viability Assays

[2] = molecular target: T2, ternary complex consisting of GFP-ABD-L253P, Lifeact-mCherry, and actin (Homo sapiens, UniProt O15020, L253P); assay: Primary live-cell time-resolved FRET assay (GFP-ABD-L253P plus Lifeact-mCherry); type: cell-based; details: LOPAC compounds 10 μM, 120 min
T2 construct: L252P β-III-spectrin (human) ABD residues 1-284; expressed in transfected cells; host or cells: HEK293-6E, pTT5 vector, transient
T2 sequence (O15020 1-284 L253P, one chain of several): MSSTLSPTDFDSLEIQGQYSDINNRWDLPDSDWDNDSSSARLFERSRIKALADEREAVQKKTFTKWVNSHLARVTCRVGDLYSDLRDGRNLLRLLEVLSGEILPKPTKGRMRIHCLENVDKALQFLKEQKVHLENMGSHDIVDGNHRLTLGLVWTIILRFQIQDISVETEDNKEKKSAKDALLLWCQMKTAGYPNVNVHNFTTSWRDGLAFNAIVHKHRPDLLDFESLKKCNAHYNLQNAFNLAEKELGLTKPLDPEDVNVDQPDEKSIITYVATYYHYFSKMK

HEK293-6E cells = assay: Trypan blue cell viability assay; type: cell-based; details: 10 μM, 3 hr incubation
Method: HEK293-6E cell viability was measured using trypan blue (0.03%) staining and a Countess Automated Cell counter (Invitrogen). Non-transfected HEK293-6E cells were spun at 100×g for 5 min at 21° C., and resuspended in 10 mL of PBS. The centrifugation and resuspension were repeated twice more. Final cell concentration was 1×10^6 cells/mL. Cells were incubated with 2% DMSO, or 3-50 μM compound (as indicated) for 3 hrs at room temperature (21° C.). After addition of 100 μL of 0.06% trypan blue solution in PBS, 10 μL was loaded on a slide and injected into the cell counter, and cell viability was measured.

[3] = molecular target: T3, GFP-ABD-L253P and Lifeact-mCherry on actin filaments (Homo sapiens, UniProt O15020, L253P); assay: Live-cell FRET assay after actin depolymerization (Example 2); type: cell-based; details: 60 min treatment
T3 construct: expressed in transfected cells; host or cells: HEK293.2sus (ATCC CRL-1573.3), pcDNA3.1(+), transient
T3 sequence (O15020 1-284 L253P): as the sequence (O15020 1-284 L253P, one chain of several) above
Description: Expression constructs. FRET donor and acceptor constructs were generated using the plasmid expression vector, pcDNA3.1(+) (Invitrogen). The coding sequence for Lifeact-mCherry was PCR amplified from mCherry-Lifeact-7 (Addgene, plasmid #54491) using the oligonucleotides, […] and […], and ligated into pcDNA3.1(+) using the restriction enzymes Kpn1 and Xba1, resulting in the construct pcDNA3.1-Lifeact-mCherry. To generate GFP-ABD expression constructs, a mEGFP DNA construct with flanking Kpn1 and EcoR1 restriction sites, was synthesized (Integrated DNA Technologies). The mEGFP sequence was subcloned into pcDNA3.1(+) using Kpn1 and EcoR1 restriction enzymes, resulting the in the construct, pcDNA3.1-GFP. DNA sequences encoding the wild-type or L253P human β-III-spectrin ABD (amino acids 1-284, NCBI reference sequence NP_008877.1) were PCR amplified from pE-SUMO-ABD-WT or -L253P (Avery, 2017 PMID: 29116080) using the oligonucleotides […] and […], and inserted into pcDNA3.1-GFP using EcoR1 and Xba1 restriction enzymes. The resulting constructs, pcDNA3.1-GFP-ABD-WT and -L253P, along with pcDNA3.1-Lifeact-mCherry, were sequence verified. […]
FRET Measurement. FRET in live cells was measured using a Fluorescence Lifetime (FLT) Plate Reader (FLTPR) (Fluorescence Innovations). […]

actin filaments = details: cited from earlier work

For `Clc1ccc(C(c2ccc(Cl)cc2)n2cc[n+](CC(OCc3ccc(Cl)cc3Cl)c3ccc(Cl)cc3Cl)c2)cc1` (centres unmarked) [calmidazolium], the “reported effect on cell viability” value (mammalian cells) is given as “reported to reduce cell viability”, the “effect on Lifeact-mCherry binding with actin” value [1] is given as “decreased actin-Lifeact co-sedimentation; also recorded: reduce Lifeact-mCherry binding with actin” and the “effect on FRET in primary screen (Hit, 4SD threshold)” value [2] is given as “decrease FRET”. The “effect on HEK293-6E cell viability” value (HEK293-6E cells) was “dramatically reduced cell viability; also recorded: reduces HEK293-6E cell viability”.
With `C/C1=C/C(=O)O[C@@H]2C[C@@H](CC[C@H](C)/C=C\C=C\CC1)O[C@@](O)([C@@H]1CSC(=O)N1)C2` [latrunculin A] the “effect on FRET between GFP-ABD-L253P and Lifeact-mCherry” value [3] was “significantly reduce FRET; also recorded: decrease in FRET”.
For `C/C1=C/C(=O)O[C@@H]2C[C@@H](CC[C@H](C)/C=C\CC1)O[C@@](O)([C@@H]1CSC(=O)N1)C2` [latrunculin B], the “effect on FRET between GFP-ABD-L253P and Lifeact-mCherry” value [3] was “significantly reduce FRET; also recorded: decrease in FRET”.
For “K255E α-actinin-4: α-actinin-4 carrying the disease mutation K255E”, the Kd (actin filaments; mutant ABD proteins) is listed as 0.046 µM.
In the case of “wild-type: wild-type dystrophin, comparator for L212P”, the Kd (actin filaments; wild-type dystrophin, Singh et al.) is listed as about 45 µM.

Source: patent US11656221B2, “Methods to identify modulators of actin-binding proteins” (Regents of the University of Minnesota, priority 2019, dated 2023)
